Starred links: 1 amine or outer side, 2 acyl side, 3 side chain; linkers in the order of their positions; H or OH if unused. Non-standard residues stand in square brackets, D forms with d. Residues, ends and D or L forms follow the SMILES beside them. Groups on a side chain read outwards from the residue. *: point of attachment. C18 diacid = O=C(O)CCCCCCCCCCCCCCCCC(=O)*; γGlu = O=C(O)[C@H](CCC(=O)[*:2])N[*:1]; AEEA = NCCOCCOCC(=O)O; Aib = CC(C)(N)C(=O)O
Target: T1, human GLP-1 receptor (Homo sapiens, UniProt P43220)
T1 construct: expressed in transfected cells; host or cells: membranes of BHK cells (parent BHKTS13), clone FCW467-12A
Assay: Assay (II)(a) GLP-1 receptor binding, 125I-GLP-1 displacement SPA on BHK membranes
Conditions: without presence of serum albumin; read-out: GLP-1R IC50 (nM) [Assay (II)(a)]
Procedure: The GLP-1 receptor (GLP-1R) binding is a measure of affinity of a compound for the human GLP-1 receptor. The receptor binding of each compound to the human GLP-1 receptor was measured in a displacement binding assay. In this type of assay a labelled ligand (in this case 125I-GLP-1) is bound to the receptor. Each derivative was added in a series of concentrations to isolated membranes containing the human GLP-1 receptor and displacement of the labelled ligand was monitored. The receptor binding was reported as the concentration at which half of the labelled ligand was displaced from the receptor, the IC50 value. In order to test the binding of the derivatives to albumin, the assay may be performed in a very low concentration of serum albumin (max. 0.001% final assay concentration) as well as in the presence of a (considerably) higher concentration of serum albumin (2.0% final assay concentration). An increase of the IC50 value, in the presence of serum albumin indicates an affinity to serum albumin and represents a method to predict a protracted pharmacokinetic profile of the test substance in animal models. The following chemicals were used in the assay: DMEM w/o phenol red (Gibco 11880-028), Pen/strep (Invitrogen 15140-122), G418 (Invitrogen 10131-027), 1 M Hepes (Gibco 15630), EDTA (Invitrogen 15575-038), PBS (Invitrogen 14190-094), fetal calf serum (Invitrogen 16140-071), EGTA, MgCl2 (Merck 1.05832.1000), Tween 20 (Amresco 0850C335), SPA particles (wheat germ agglutinin (WGA) SPA beads, Perkin Elmer RPNQ0001), [125I]-GLP-1]-(7-36)NH2 (produced in-house), OptiPlate™-96 (Perkin Elmer). Buffer 1 consisted of 20 mM Na-HEPES plus 10 mM EDTA and pH was adjusted to 7.4. Buffer 2 consisted of 20 mM Na-HEPES plus 0.1 mM EDTA and pH was adjusted to 7.4. Assay buffer consisted of 50 mM HEPES supplemented with 5 mM EGTA, 5 mM MgCl2, 0.005% Tween 20 and pH was adjusted to 7.4. The cells used in this assay (clone FCW467-12A) were BHK cells with BHKTS13 as a parent cell line. The cells express the human GLP-1 receptor. The cells were grown at 5% CO2 in DMEM, 10% fetal calf serum, 1% Pen/Strep (Penicillin/Streptomycin) and 1.0 mg/ml of the selection marker G418. To make a membrane preparation the cells were grown to approximately 80% confluence. The cells were washed twice in phosphate-buffered saline and harvested. The cells were pelleted using a brief centrifugation and the cell pellet was kept on ice. The cell pellet was homogenised with ULTRA-THURRAX dispersing instrument for 20-30 seconds in a suitable amount of buffer 1 (e.g., 10 ml). The homogenate was centrifuged for 15 minutes. The pellet was re-suspended (homogenised) in 10 ml buffer 2 and centrifuged. This step was repeated once more. The resulting pellet was re-suspended in buffer 2 and the protein concentration was determined. The membranes were aliquoted and stored at minus 80° C. • 1. For the receptor binding assay, 50 μl of the assay buffer was added to each well of an assay plate. • 2. Test compounds were serially diluted to give the following concentrations: 8×10EE-7 M, 8×10EE-8 M, 8×10EE-9 M, 8×10EE-10 M, 8×10EE-11 M, 8×10EE-12 M and 8×10EE-13 M. Twenty-five μl were added to appropriate wells in the assay plate. • 3. Cell membrane aliquots were thawed and diluted to their working concentration. Fifty μl were added to each well in the assay plate. • 4. WGA SPA beads were suspended in assay buffer at 20 mg/ml. The suspension was diluted to 10 mg/ml in assay buffer just prior to addition to the assay plate. Fifty μl were added to each well in the assay plate. • 5. The incubation was started by adding 25 μl of […] solution of [125I]-GLP-1]-(7-36)NH2 to each well of the assay plate. A 25 μl aliquot was reserved for measuring total counts/well. • 6. The assay plate was incubated for 2 h at 30° C. • 7. The assay plate was centrifuged for 10 min. • 8. The assay plate was read in a Perkin Elmer TopCount NXT instrument. […]

T1 sequence (P43220 24-463): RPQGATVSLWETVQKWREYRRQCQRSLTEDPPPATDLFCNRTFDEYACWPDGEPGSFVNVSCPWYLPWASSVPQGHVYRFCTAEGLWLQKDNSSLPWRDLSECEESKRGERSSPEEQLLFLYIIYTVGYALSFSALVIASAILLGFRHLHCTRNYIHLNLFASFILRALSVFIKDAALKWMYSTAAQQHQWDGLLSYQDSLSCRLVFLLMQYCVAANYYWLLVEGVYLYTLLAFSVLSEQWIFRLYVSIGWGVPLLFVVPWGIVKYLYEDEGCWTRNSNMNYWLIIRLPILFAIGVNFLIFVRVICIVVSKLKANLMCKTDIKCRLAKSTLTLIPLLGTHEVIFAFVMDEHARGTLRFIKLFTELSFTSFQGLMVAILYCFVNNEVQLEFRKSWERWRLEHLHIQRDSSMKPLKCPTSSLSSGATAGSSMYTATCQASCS

IC50: 0.5 nM
SMILES: CC[C@H](C)[C@H](NC(=O)[C@H](CC(C)C)NC(=O)[C@H](Cc1c[nH]c2ccccc12)NC(=O)[C@H](CCC(N)=O)NC(=O)[C@@H](NC(=O)[C@H](Cc1ccccc1)NC(=O)[C@H](CC(=O)O)NC(=O)[C@H](CCC(N)=O)NC(=O)[C@H](C)NC(=O)[C@H](CCCNC(=N)N)NC(=O)[C@H](CCCNC(=N)N)NC(=O)[C@H](CC(C)C)NC(=O)[C@H](CC(=O)O)NC(=O)[C@H](CC(C)C)NC(=O)[C@H](Cc1ccc(O)cc1)NC(=O)[C@H](CCCCN)NC(=O)[C@H](CO)NC(=O)[C@H](CC(C)C)NC(=O)[C@H](CC(=O)O)NC(=O)[C@H](CO)NC(=O)[C@@H](NC(=O)[C@H](Cc1ccccc1)NC(=O)[C@@H](NC(=O)CNC(=O)[C@H](CCC(N)=O)NC(=O)C(C)(C)NC(=O)[C@@H](N)Cc1c[nH]cn1)[C@@H](C)O)[C@@H](C)O)C(C)C)C(=O)N[C@@H](CCCCNC(=O)COCCOCCNC(=O)COCCOCCNC(=O)CC[C@H](NC(=O)CC[C@H](NC(=O)CC[C@H](NC(=O)CCCCCCCCCCCCCCCCC(=O)O)C(=O)O)C(=O)O)C(=O)O)C(=O)N[C@H](C(N)=O)[C@@H](C)O [Chem. 9, N^ε28-[2-[2-[2-[[2-[2-[2-[[(4S)-4-carboxy-4-[[(4S)-4-carboxy-4-[[(4S)-4-carboxy-4-(17-carboxyheptadecanoylamino)butanoyl]amino]butanoyl]amino]butanoyl]amino]ethoxy]ethoxy]acetyl]amino]ethoxy]ethoxy]acetyl]-[Aib2,Leu10,Leu16,Ile27,Lys28]-Glucagon amide] (H-H[Aib]QGTFTSDLSKYLDLRRAQDFVQWLIK([AEEA-AEEA-γGlu-γGlu-γGlu-C18 diacid])T-NH2; N-terminus assumed)

From US10570184B2, “GLP-1/glucagon receptor co-agonists for medical use” (Novo Nordisk A/S, priority 2014, dated 2020)
